In patent US7897616B2, “Imidazopyridin-2-one derivatives as inhibitors of lipases and phospholipases” (Sanofi-Aventis, priority 2006, dated 2011):

Target: T1, endothelial lipase (EL) (Homo sapiens, UniProt Q9Y5X9)
T1 construct: made in house; host or cells: recombinant CHO or HEK293 cell lines; concentrated conditioned medium used as enzyme solution
T1 sequence (Q9Y5X9 21-500): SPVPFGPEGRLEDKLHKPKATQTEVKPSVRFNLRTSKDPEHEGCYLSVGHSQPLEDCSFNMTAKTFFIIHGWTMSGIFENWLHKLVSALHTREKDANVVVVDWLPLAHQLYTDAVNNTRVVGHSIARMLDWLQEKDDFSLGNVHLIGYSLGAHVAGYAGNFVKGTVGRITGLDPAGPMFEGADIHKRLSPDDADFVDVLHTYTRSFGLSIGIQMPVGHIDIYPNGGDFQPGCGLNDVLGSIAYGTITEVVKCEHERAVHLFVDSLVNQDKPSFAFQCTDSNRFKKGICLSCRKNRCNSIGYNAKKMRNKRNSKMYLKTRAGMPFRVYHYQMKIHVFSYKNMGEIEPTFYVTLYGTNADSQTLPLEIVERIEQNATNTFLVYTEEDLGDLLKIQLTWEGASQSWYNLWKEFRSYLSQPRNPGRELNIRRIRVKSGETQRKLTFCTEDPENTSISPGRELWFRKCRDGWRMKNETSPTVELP
Assay: EL inhibition assay (EL activity assay with fluorescent Bodipy phospholipid substrate)
Type: biochemical
Details: EL from conditioned medium of recombinant cell lines (CHO, HEK293); 37° C., 90 minutes; Bodipy-labeled phosphocholine substrate
Description: The activity of the compounds of the invention of the formula I was tested in the following enzyme assay system: […]
EL is released as secretory protein in high concentration into cell culture medium (conditioned medium) by recombinant cell lines (CHO, HEK293). This is employed as an enzyme solution after concentration.
The phospholipase-specific substrate 1,2-bis(4,4-difluoro-5,7-dimethyl-4-bora-3a,4a-diaza-s-indacene-3-undecanoyl)-sn-glycero-3-phosphocholine (manufacturer Molecular Probes) is used to characterize the enzymatic activity of endothelial lipase and the effect of inhibitors. Hydrolysis of the A1 ester linkage of this phospholipid by the enzyme liberates a fatty acid labeled with the fluorescent dye Bodipy which can be detected after separation by thin-layer chromatography on an HPTLC plate (silica gel 60, Merck) or directly in the reaction vessel by measuring the fluorescence. The substrate solution is prepared by dissolving 100 μg of 1,2-bis(4,4-difluoro-5,7-dimethyl-4-bora-3a,4a-diaza-s-indacene-3-undecanoyl)-sn-glycero-3-phospho-choline (manufacturer Molecular Probes) in 100 μl of DMSO and taking up in 2.4 mg of tripalmitin (Sigma) in 393 μl of chloroform which comprises 20 mg/ml of DOP-choline (1,2-dioleoyl-sn-glycero-3-phosphocholine). 39.3 μl of this lipid mixture are transferred into a fresh reaction vessel, and the solvent is evaporated off. The lipid mixture is dissolved in 4 ml of 200 mM TRIS-HCl, 150 mM sodium chloride, pH=7.4, by sonicating twice. The subsequent enzymic reaction takes place at 37° C. for 90 minutes. For this purpose, 20 μl of the substrate solution are incubated with 2 μl of inhibitor of appropriate concentration (dissolved in 10% DMSO, using 10% strength DMSO solution for control) and 2 μl of enzyme solution (conditioned medium). Subsequently, 4 μl of the assay mixture are loaded onto an HPTLC plate (silica gel 60, Merck), and the liberated fluorescent dye is separated for detection with a mobile phase (diethyl ether:petroleum spirit:acetic acid [78:22:1]). After evaporation of the mobile phase, the plate is read in a fluorescence scanner. An increased liberation of the fluorescent dye in the uninhibited reaction is observed as a measure of the enzyme activity.
The enzymatic activity is reduced as a function of the inhibitor concentration used, and the inhibitor concentration at which a half-maximum enzymatic activity is observed is called IC50.

IC50	Structure (SMILES)
0.226 µM	CCCCCCNC(=O)n1c(=O)n(C(=O)NCCCCCC)c2cnccc21 [Example 8, N,N′-Bishexyl-2-oxoimidazo[4,5-c]pyridine-1,3-dicarboxamide]
0.232 µM	Cn1c(=O)n(C(=O)N[C@@H]2CCc3ccccc32)c2ncccc21 [Example 9, 1-Methyl-2-oxo-1,2-dihydro-imidazo[4,5-b]pyridine-3-carboxylic acid-(R)-indan-1-ylamide]

Second part, the compound before the results:

Structure (SMILES)	IC50
CCCCCCNC(=O)n1c(=O)n(C)c2cccnc21 [Example 1, N-Hexyl-1-methyl-2-oxo-1,2-dihydroimidazo[4,5-b]pyridine-3-carboxamide]	0.06 µM
Cc1ccccc1CNC(=O)n1c(=O)n(C)c2cccnc21 [Example 2, N-(2-Methylbenzyl)-1-methyl-2-oxo-1,2-dihydroimidazo[4,5-b]pyridine-3-carboxamide]	0.24 µM
CCCCCCNC(=O)n1c(=O)n(C(=O)OC(C)(C)C)c2c(C)ccnc21 [Example 7, tert-Butyl 3-hexylcarbamoyl-7-methyl-2-oxo-2,3-dihydroimidazo[4,5-b]pyridine-1-carboxylate]	0.146 µM
